# From article PMC9170034 (Proceedings of the National Academy of Sciences of the …, 2022)
# Where “and” joins values, the source holds several entries; their conditions need not be identical. Equal entries are not always repeated. Where two headings read alike, the source gives them in different places.
# What was measured:
# OXA-10 [1] = target: T1, OXA-10 (Pseudomonas aeruginosa, UniProt P14489); assay: IC50/pIC50 determination with fluorescent reporter substrate FC-5 after pre-incubation; type: biochemical
# T1 construct: His tag (N); made in house
# T1 sequence (P14489 20-266): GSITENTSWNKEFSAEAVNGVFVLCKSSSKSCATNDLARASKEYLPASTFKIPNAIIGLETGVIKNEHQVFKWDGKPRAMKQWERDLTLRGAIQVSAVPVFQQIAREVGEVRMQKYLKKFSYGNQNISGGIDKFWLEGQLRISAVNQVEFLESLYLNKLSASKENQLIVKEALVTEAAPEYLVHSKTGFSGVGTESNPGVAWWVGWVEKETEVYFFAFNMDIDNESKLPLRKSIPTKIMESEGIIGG
# Protocol: Kinetic analyses were performed (at least in triplicate) using either BMG LABTECH PHERAstar or CLARIOstar plate readers. Unless stated otherwise, reactions were in 50 mM phosphate buffer, pH 7.5, containing 0.01% (vol/vol) aqueous Triton X-100, and, in the case of OXA-10, 10 mM sodium bicarbonate. […] Nonlinear regression analysis was performed with Prism 5 (GraphPad Software).
# IC50s were determined as reported ([35]). […] The apparent inhibitory constant Kiapp and the second-order rate constant kinact/K (or k2/K) were determined using reported methods ([60]). SBLs were reacted with the reporter substrate in the presence of varied inhibitor concentrations. Reactions were initiated by SBL addition and immediately monitored for 60 to 120 s (until they plateaued). […] P=Vst+(V0−VS)(1−e^−kobst)/kobs+P0.
# [2] = target: T2, AmpC from Escherichia coli (AmpCEC) (Escherichia coli, UniProt P00811); assay: as above; type: biochemical
# T2 construct: made in house
# T2 sequence (P00811 20-377): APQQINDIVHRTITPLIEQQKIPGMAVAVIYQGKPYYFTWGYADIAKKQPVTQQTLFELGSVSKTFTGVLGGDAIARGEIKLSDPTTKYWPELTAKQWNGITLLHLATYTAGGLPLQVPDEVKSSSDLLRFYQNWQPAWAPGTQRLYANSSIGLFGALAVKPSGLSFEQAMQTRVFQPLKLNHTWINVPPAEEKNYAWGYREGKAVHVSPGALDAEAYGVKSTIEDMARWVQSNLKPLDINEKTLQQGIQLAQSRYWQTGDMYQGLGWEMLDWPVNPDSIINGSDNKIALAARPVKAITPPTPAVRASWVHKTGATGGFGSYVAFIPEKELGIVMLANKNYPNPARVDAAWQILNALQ
# Protocol: (§1) Kinetic analyses were performed (at least in triplicate) using either BMG LABTECH PHERAstar or CLARIOstar plate readers. Unless stated otherwise, reactions were in 50 mM phosphate buffer, pH 7.5, containing 0.01% (vol/vol) aqueous Triton X-100, and, in the case of OXA-10, 10 mM sodium bicarbonate. Assays were performed in competition with either the fluorescent reporter substrate FC-5 ([35]), using black-walled microplates (Greiner Bio-One μCLEAR, PS, F-bottom, black), and measuring fluorescence intensity (ʎex = 380 nm and ʎem = 460 nm), or with nitrocefin (NCF), using ultraviolet transparent plates (Greiner Bio-One UV-Star, COC, F-bottom, clear) and measuring absorbance (ʎAbs = 486 nm, using path-length correction). Nonlinear regression analysis was performed with Prism 5 (GraphPad Software).
# IC50s were determined as reported ([35]). TEM-116 (1 nM), AmpCEC (500 pM), or OXA-10 (250 pM) were incubated with varied inhibitor concentrations at room temperature (r.t.) for the indicated time then assayed using 5 µM FC-5. The apparent inhibitory constant Kiapp and the second-order rate constant kinact/K (or k2/K) were determined using reported methods ([60]). SBLs were reacted with the reporter substrate in the presence of varied inhibitor concentrations. Reactions were initiated by SBL addition and immediately monitored for 60 to 120 s (until they plateaued). For TEM-116 (1 nM) assays were carried out in competition with NCF (50 µM); for AmpCEC (100 nM) and OXA-10 (50 nM) FC-5 (5 µM) was used. […] P=Vst+(V0−VS)(1−e^−kobst)/kobs+P0.
# AmpCEC = target: T3, AmpCEC (Escherichia coli, UniProt P00811); assay: biochemical
# T3 construct: made in house
# T3 sequence (P00811 20-377): as above
# Protocol: as §1
# (§2) IC50s were determined as reported ([35]). TEM-116 (1 nM), AmpCEC (500 pM), or OXA-10 (250 pM) were incubated with varied inhibitor concentrations at room temperature (r.t.) for the indicated time then assayed using 5 µM FC-5. The apparent inhibitory constant Kiapp and the second-order rate constant kinact/K (or k2/K) were determined using reported methods ([60]). SBLs were reacted with the reporter substrate in the presence of varied inhibitor concentrations. Reactions were initiated by SBL addition and immediately monitored for 60 to 120 s (until they plateaued). […]
# OXA-10 [3] = target: T1, OXA-10; assay: Kiapp and kinact/K determination in competition with FC-5; type: biochemical
# Protocol: as §1, §2
# OXA-10 [4] = target: T1, OXA-10; assay: SPE-MS study of prolonged reaction of SBL with penam sulfones; details: 500 equiv.
# TEM-116 = TEM-116 (Escherichia coli, UniProt P62593, A182V/V82I); assay: as above; details: prolonged incubation (8 h) with 100 equiv.
# Protocol: Mass spectra were acquired in the positive ion mode using an integrated autosampler/SPE RapidFire365 system (Agilent Technologies) coupled to an Agilent 6550 Accurate Mass QTOF spectrometer. After the indicated time, 50 μL of the solution was loaded onto a C4 SPE cartridge (Agilent Technologies), then washed with buffer A (100% [vol/vol] water, 0.1% [vol/vol] formic acid), then eluted into the mass spectrometer in buffer B (15% [vol/vol] water, 85% [vol/vol] acetonitrile, 0.1% [vol/vol] formic acid). The cartridge was reequilibrated in buffer A in between samples. Data were analyzed using MassHunter Qualitative Analysis software V.7 (Agilent Technologies) using the maximum entropy deconvolution algorithm.
# KPC-3 = tested on: KPC-3; design: method as in earlier work; details: periplasmic extracts; nitrocefin; 5 min pre-incubation; ref 2 (Papp-Wallace et al., 2019); cited from earlier work
# OXA-48 = tested on: OXA-48; design: method as in earlier work; details: periplasmic extracts; nitrocefin; 5 min pre-incubation; ref 2 (Papp-Wallace et al., 2019); cited from earlier work
# CTX-M-14 = tested on: CTX-M-14; design: method as in earlier work; details: periplasmic extracts; nitrocefin; 5 min pre-incubation; ref 2 (Papp-Wallace et al., 2019); cited from earlier work
# SHV-49 = details: periplasmic extracts; nitrocefin; 5 min pre-incubation; ref 2 (Papp-Wallace et al., 2019); cited from earlier work
# CMY-2 = tested on: CMY-2; design: method as in earlier work; details: periplasmic extracts; nitrocefin; 5 min pre-incubation; ref 2 (Papp-Wallace et al., 2019); cited from earlier work
# OXA-51 = tested on: OXA-51; design: method as in earlier work; details: periplasmic extracts; nitrocefin; 5 min pre-incubation; ref 2 (Papp-Wallace et al., 2019); cited from earlier work
# SHV (R244S) = tested on: SHV (R244S); design: method as in earlier work; details: periplasmic extracts; nitrocefin; 5 min pre-incubation; ref 2 (Papp-Wallace et al., 2019); cited from earlier work
# KPC-2 = tested on: KPC-2; design: method as in earlier work; details: periplasmic extracts; nitrocefin; 5 min pre-incubation; ref 2 (Papp-Wallace et al., 2019); cited from earlier work
# SHV-1 = details: periplasmic extracts; nitrocefin; 5 min pre-incubation; ref 2 (Papp-Wallace et al., 2019); cited from earlier work
# AmpC E. cloacae = tested on: AmpC E. cloacae; design: method as in earlier work; details: periplasmic extracts; nitrocefin; 5 min pre-incubation; ref 2 (Papp-Wallace et al., 2019); cited from earlier work
# OXA-58 = tested on: OXA-58; design: method as in earlier work; details: periplasmic extracts; nitrocefin; 5 min pre-incubation; ref 2 (Papp-Wallace et al., 2019); cited from earlier work
# TEM-26 = tested on: TEM-26; design: method as in earlier work; details: periplasmic extracts; nitrocefin; 5 min pre-incubation; ref 2 (Papp-Wallace et al., 2019); cited from earlier work
# CTX-M-15 = tested on: CTX-M-15; design: method as in earlier work; details: periplasmic extracts; nitrocefin; 5 min pre-incubation; ref 2 (Papp-Wallace et al., 2019); cited from earlier work
# OXA-1 = tested on: OXA-1; design: method as in earlier work; details: periplasmic extracts; nitrocefin; 5 min pre-incubation; ref 2 (Papp-Wallace et al., 2019); cited from earlier work
# TEM-30 = tested on: TEM-30; design: method as in earlier work; details: periplasmic extracts; nitrocefin; 5 min pre-incubation; ref 2 (Papp-Wallace et al., 2019); cited from earlier work
structure (smiles),measurement,setting,value
CC1(C)[C@H](C(=O)O)N2C(=O)C[C@H]2S1(=O)=O [sulbactam],IC50,"OXA-10 [1]; IC50, OXA-10, 10 min pre-incubation, r.t., pH 7.5, FC-5 (5 μM), 100 mM NaHCO3 added",143 µM and 142 µM
same,IC50,"OXA-10 [1]; pIC50 at pH 7.5, OXA-10, with 100 mM added NaHCO3, 0 min pre-incubation, Table S1",218.8 ± 0.598 µM
same,IC50,"OXA-10 [1]; pIC50 at pH 7.5, OXA-10, with 100 mM added NaHCO3, 30 min pre-incubation, Table S1",263 µM
same,IC50,"OXA-10 [1]; pIC50 at pH 7.5, OXA-10, with 100 mM added NaHCO3, 60 min pre-incubation, Table S1",112 µM
same,IC50,"OXA-10 [1]; pIC50 at pH 7.5, OXA-10, with 100 mM added NaHCO3, 360 min pre-incubation, Table S1",204 µM
same,IC50,"OXA-10 [1]; pIC50 at pH 7.5, OXA-10, without added NaHCO3, 0 min pre-incubation, Table S1",204 µM
same,IC50,"OXA-10 [1]; pIC50 at pH 7.5, OXA-10, without added NaHCO3, 10 min pre-incubation, Table S1",87.1 µM
same,IC50,"OXA-10 [1]; pIC50 at pH 7.5, OXA-10, without added NaHCO3, 30 min pre-incubation, Table S1",89.1 µM
same,IC50,"OXA-10 [1]; pIC50 at pH 7.5, OXA-10, without added NaHCO3, 60 min pre-incubation, Table S1",75.9 µM
same,IC50,"OXA-10 [1]; pIC50 at pH 7.5, OXA-10, without added NaHCO3, 360 min pre-incubation, Table S1",50.1 µM
same,IC50,"[2]; IC50, AmpC E. coli, 10 min pre-incubation, r.t., pH 7.5, FC-5 (5 μM)",89 µM and 89.2 µM
same,IC50,"[2]; pIC50, AmpCEC, pH 7.0, pH 7.0, 0 min pre-incubation, Table S2",447 µM
same,IC50,"[2]; pIC50, AmpCEC, pH 7.0, pH 7.0, 10 min pre-incubation, Table S2",162 µM
same,IC50,"[2]; pIC50, AmpCEC, pH 7.0, pH 7.0, 30 min pre-incubation, Table S2",69.2 µM
same,IC50,"[2]; pIC50, AmpCEC, pH 7.0, pH 7.0, 60 min pre-incubation, Table S2",45.7 µM
same,IC50,"[2]; pIC50, AmpCEC, pH 7.0, pH 7.0, 360 min pre-incubation, Table S2",11.5 µM
same,IC50,"[2]; pIC50, AmpCEC, pH 7.5, pH 7.5, 0 min pre-incubation, Table S2",275 µM
same,IC50,"[2]; pIC50, AmpCEC, pH 7.5, pH 7.5, 30 min pre-incubation, Table S2",36.3 µM
same,IC50,"[2]; pIC50, AmpCEC, pH 7.5, pH 7.5, 60 min pre-incubation, Table S2",20 µM
same,IC50,"[2]; pIC50, AmpCEC, pH 7.5, pH 7.5, 360 min pre-incubation, Table S2",4.17 µM
same,IC50,"[2]; pIC50, AmpCEC, pH 8.0, pH 8.0, 0 min pre-incubation, Table S2",97.7 µM
same,IC50,"[2]; pIC50, AmpCEC, pH 8.0, pH 8.0, 10 min pre-incubation, Table S2",37.2 µM
same,IC50,"[2]; pIC50, AmpCEC, pH 8.0, pH 8.0, 60 min pre-incubation, Table S2",9.77 µM
same,IC50,"[2]; pIC50, AmpCEC, pH 8.0, pH 8.0, 360 min pre-incubation, Table S2",1.7 µM
same,IC50,"[2]; pIC50 at pH 7.5, AmpCEC, 0 min pre-incubation, Table S1",275 µM
same,IC50,"[2]; pIC50 at pH 7.5, AmpCEC, 30 min pre-incubation, Table S1",36.3 µM
same,IC50,"[2]; pIC50 at pH 7.5, AmpCEC, 60 min pre-incubation, Table S1",20 µM
same,IC50,"[2]; pIC50 at pH 7.5, AmpCEC, 360 min pre-incubation, Table S1",4.17 µM
same,Ki,AmpCEC,1580 ± 189 µM
same,Ki,OXA-10 [3],4920 ± 873 µM
same,"−18-Da modification, OXA-10",OXA-10 [4],Small amounts
C[C@]1(Cn2ccnn2)[C@H](C(=O)O)N2C(=O)C[C@H]2S1(=O)=O [tazobactam],IC50,"OXA-10 [1]; with 100 mM added NaHCO3, 0 min pre-incubation, Table S1, read-out: pIC50 at pH 7.5, OXA-10 (converted)",3.89 µM
same,IC50,"OXA-10 [1]; with 100 mM added NaHCO3, 10 min pre-incubation, Table S1, read-out: pIC50 at pH 7.5, OXA-10 (converted)",1.91 µM
same,IC50,"OXA-10 [1]; with 100 mM added NaHCO3, 30 min pre-incubation, Table S1, read-out: pIC50 at pH 7.5, OXA-10 (converted)",0.851 µM
same,IC50,"OXA-10 [1]; with 100 mM added NaHCO3, 60 min pre-incubation, Table S1, read-out: pIC50 at pH 7.5, OXA-10 (converted)",0.562 µM
same,IC50,"OXA-10 [1]; with 100 mM added NaHCO3, 360 min pre-incubation, Table S1, read-out: pIC50 at pH 7.5, OXA-10 (converted)",0.204 µM
same,IC50,"OXA-10 [1]; without added NaHCO3, 0 min pre-incubation, Table S1, read-out: pIC50 at pH 7.5, OXA-10 (converted)",5.01 µM
same,IC50,"OXA-10 [1]; without added NaHCO3, 10 min pre-incubation, Table S1, read-out: pIC50 at pH 7.5, OXA-10 (converted)",1.48 µM
same,IC50,"OXA-10 [1]; without added NaHCO3, 30 min pre-incubation, Table S1, read-out: pIC50 at pH 7.5, OXA-10 (converted)",0.891 µM
same,IC50,"OXA-10 [1]; without added NaHCO3, 60 min pre-incubation, Table S1, read-out: pIC50 at pH 7.5, OXA-10 (converted)",0.457 µM
same,IC50,"OXA-10 [1]; without added NaHCO3, 360 min pre-incubation, Table S1, read-out: pIC50 at pH 7.5, OXA-10 (converted)",0.234 µM
same,"−18-Da species, TEM-116",TEM-116,not observed
same,IC50,KPC-3,4.4 ± 0.5 µM
same,IC50,OXA-48,1.5 ± 0.2 µM
same,IC50,SHV-49,0.73 ± 0.08 µM
same,Ki,"OXA-10 [3]; OXA-10 (50 nM), FC-5 (5 µM), pH 7.5, 10 mM NaHCO3, read-out: Kiapp, OXA-10",469 ± 80 µM
same,IC50,CMY-2,2.5 ± 0.3 µM
same,IC50,OXA-51,> 100 µM
same,IC50,SHV (R244S),0.39 ± 0.04 µM
same,IC50,KPC-2,3.7 ± 0.4 µM
same,IC50,SHV-1,0.026 ± 0.003 µM
same,IC50,AmpC E. cloacae,5.1 ± 0.5 µM
same,IC50,OXA-58,26 ± 3 µM
same,IC50,TEM-26,0.023 ± 0.001 µM
same,IC50,CTX-M-15,0.006 ± 0.001 µM
same,IC50,OXA-1,8.6 ± 0.9 µM
